Results: ChEMBL document CHEMBL4138123, “Design, synthesis and biological evaluation of novel pyrazolochalcones as potential modulators of PI3K/Akt/mTOR pathway and inducers of apoptosis in breast cancer cells” (Eur J Med Chem, 2017)

Key:
Format in all cases: functional
[1] = system: ACHN; assay: Cytotoxicity against human ACHN cells assessed as cell growth at 0.01 uM after 48 hrs by sulforhodamine B assay relative to control; conditions: read-out: Activity
[2] = system: RXF 393; assay: Cytotoxicity against human RXF393 cells assessed as cell growth at 1 uM after 48 hrs by sulforhodamine B assay relative to control; conditions: RXF 393, 48 h, read-out: Activity
[3] = system: MCF7; assay: Cytotoxicity against human MCF7 cells assessed as cell growth at 10 uM after 48 hrs by sulforhodamine B assay relative to control; conditions: MCF7, 48 h, read-out: Activity
[4] = system: SF-268; assay: Cytotoxicity against human SF268 cells assessed as cell growth at 1 uM after 48 hrs by sulforhodamine B assay relative to control; conditions: SF-268, 48 h, read-out: Activity
[5] = system: BT-549; assay: Cytotoxicity against human BT549 cells assessed as cell growth at 100 uM after 48 hrs by sulforhodamine B assay relative to control; conditions: BT-549, 48 h, read-out: Activity
[6] = system: Hs-578T; assay: Cytotoxicity against human Hs 578T cells assessed as growth inhibition after 48 hrs by sulforhodamine B assay
[7] = system: LOX IMVI; assay: Cytotoxicity against human LOXIMVI cells assessed as growth inhibition after 48 hrs by sulforhodamine B assay
[8] = system: HCT-116; assay: Cytotoxicity against human HCT116 cells assessed as cell growth at 0.1 uM after 48 hrs by sulforhodamine B assay relative to control; conditions: HCT-116, 48 h, read-out: Activity
[9] = system: NCI-H322M; assay: Cytotoxicity against human NCI-H322M cells assessed as cell growth at 10 uM after 48 hrs by sulforhodamine B assay relative to control; conditions: read-out: Activity
[10] = system: UACC-257; assay: Cytotoxicity against human UACC257 cells assessed as growth inhibition after 48 hrs by sulforhodamine B assay; conditions: UACC-257, 48 h
[11] = system: RXF 393; assay: Cytotoxicity against human RXF393 cells assessed as growth inhibition after 48 hrs by sulforhodamine B assay; conditions: RXF 393, 48 h
[12] = system: MDA-MB-435; assay: Cytotoxicity against human MDA-MB-435 cells assessed as cell growth at 10 uM after 48 hrs by sulforhodamine B assay relative to control; conditions: MDA-MB-435, 48 h, read-out: Activity
[13] = system: Hs-578T; assay: Cytotoxicity against human Hs 578T cells assessed as cell growth at 0.1 uM after 48 hrs by sulforhodamine B assay relative to control; conditions: read-out: Activity
[14] = system: SW-620; assay: Cytotoxicity against human SW620 cells assessed as cell growth at 0.1 uM after 48 hrs by sulforhodamine B assay relative to control; conditions: SW-620, 48 h, read-out: Activity
[15] = system: U-251; assay: Cytotoxicity against human U251 cells assessed as cell growth at 0.1 uM after 48 hrs by sulforhodamine B assay relative to control; conditions: U-251, 48 h, read-out: Activity
[16] = system: U-251; assay: Cytotoxicity against human U251 cells assessed as growth inhibition after 48 hrs by sulforhodamine B assay; conditions: U-251, 48 h
[17] = system: MCF7; assay: Cytotoxicity against human MCF7 cells assessed as cell growth at 0.1 uM after 48 hrs by sulforhodamine B assay relative to control; conditions: MCF7, 48 h, read-out: Activity
[18] = system: HL-60(TB); assay: Cytotoxicity against human HL-60(TB) cells assessed as cell growth at 0.1 uM after 48 hrs by sulforhodamine B assay relative to control; conditions: HL-60, 48 h, read-out: Activity
[19] = system: PC-3; assay: Cytotoxicity against human PC3 cells assessed as cell growth at 1 uM after 48 hrs by sulforhodamine B assay relative to control; conditions: PC-3, 48 h, read-out: Activity
[20] = system: OVCAR-4; assay: Cytotoxicity against human OVCAR4 cells assessed as cell growth at 100 uM after 48 hrs by sulforhodamine B assay relative to control; conditions: OVCAR-4, 48 h, read-out: Activity
[21] = system: T47D; assay: Cytotoxicity against human T47D cells assessed as cell growth at 10 uM after 48 hrs by sulforhodamine B assay relative to control; conditions: read-out: Activity
[22] = system: UACC-257; assay: Cytotoxicity against human UACC257 cells assessed as cell growth at 0.01 uM after 48 hrs by sulforhodamine B assay relative to control; conditions: UACC-257, 48 h, read-out: Activity
[23] = system: OVCAR-3; assay: Cytotoxicity against human OVCAR3 cells assessed as cell growth at 0.01 uM after 48 hrs by sulforhodamine B assay relative to control; conditions: OVCAR-3, 48 h, read-out: Activity
[24] = system: 786-0; assay: Cytotoxicity against human 786-0 cells assessed as cell growth at 0.1 uM after 48 hrs by sulforhodamine B assay relative to control; conditions: 786-0, 48 h, read-out: Activity
[25] = system: OVCAR-4; assay: Cytotoxicity against human OVCAR4 cells assessed as growth inhibition after 48 hrs by sulforhodamine B assay; conditions: OVCAR-4, 48 h
[26] = system: SNB-19; assay: Cytotoxicity against human SNB19 cells assessed as growth inhibition after 48 hrs by sulforhodamine B assay; conditions: SNB-19, 48 h
[27] = system: DU-145; assay: Cytotoxicity against human DU145 cells assessed as growth inhibition after 48 hrs by sulforhodamine B assay; conditions: DU-145, 48 h
[28] = system: UACC-257; assay: Cytotoxicity against human UACC257 cells assessed as cell growth at 0.1 uM after 48 hrs by sulforhodamine B assay relative to control; conditions: UACC-257, 48 h, read-out: Activity
[29] = system: UACC-62; assay: Cytotoxicity against human UACC62 cells assessed as cell growth at 0.1 uM after 48 hrs by sulforhodamine B assay relative to control; conditions: UACC-62, 48 h, read-out: Activity
[30] = system: NCI-H522; assay: Cytotoxicity against human NCI-H522 cells assessed as cell growth at 0.01 uM after 48 hrs by sulforhodamine B assay relative to control; conditions: NCI-H522, 48 h, read-out: Activity
[31] = system: PC-3; assay: Cytotoxicity against human PC3 cells assessed as cell growth at 100 uM after 48 hrs by sulforhodamine B assay relative to control; conditions: PC-3, 48 h, read-out: Activity
[32] = system: UACC-62; assay: Cytotoxicity against human UACC62 cells assessed as cell growth at 100 uM after 48 hrs by sulforhodamine B assay relative to control; conditions: UACC-62, 48 h, read-out: Activity
[33] = system: Malme-3M; assay: Cytotoxicity against human MALME-3M cells assessed as cell growth at 0.1 uM after 48 hrs by sulforhodamine B assay relative to control; conditions: read-out: Activity
[34] = system: MDA-MB-435; assay: Cytotoxicity against human MDA-MB-435 cells assessed as cell growth at 100 uM after 48 hrs by sulforhodamine B assay relative to control; conditions: MDA-MB-435, 48 h, read-out: Activity
[35] = system: NCI-H522; assay: Cytotoxicity against human NCI-H522 cells assessed as cell growth at 10 uM after 48 hrs by sulforhodamine B assay relative to control; conditions: NCI-H522, 48 h, read-out: Activity
[36] = system: BT-549; assay: Cytotoxicity against human BT549 cells assessed as growth inhibition after 48 hrs by sulforhodamine B assay; conditions: BT-549, 48 h

In the case of `COc1ccc(C(=O)/C=C/c2cc(-c3cc(OC)c(OC)c(OC)c3)n[nH]2)cc1`, the growth at 0.01 µM [1] is reported as 102%, the growth at 1 µM [2] is reported as 67% and the growth at 10 µM [3] is reported as -64%. For the same compound, the growth at 1 µM [4] was 87%, the growth at 100 µM [5] was -49% and the LC50 [6] was > 100 µM. For the same compound, the TGI [6] was > 100 µM, the TGI [7] was 3.02 µM and the growth at 0.1 µM [8] was 102%. It also gave a growth at 10 µM [9] of -60%, a TGI [10] of 3.74 µM and an LC50 (concentration killing 50% of cells) [11] of 5.17 µM. For the same compound, the TGI [11] was 2.56 µM, the growth at 10 µM [12] was -30% and the growth at 0.1 µM [13] was 100%. For the same compound, the growth at 0.1 µM [14] was 97%, the growth at 0.1 µM [15] was 97% and the TGI [16] was 2.83 µM. It also gave a growth at 0.1 µM [17] of 93%, a growth at 0.1 µM [18] of 108% and a growth at 1 µM [19] of 76%. For the same compound, the growth at 100 µM [20] was -15%, the growth at 10 µM [21] was 1% and the growth at 0.01 µM [22] was 97%. The growth at 0.01 µM [23] was 101%, the growth at 0.1 µM [24] was 96% and the LC50 [25] was > 100 µM. The TGI [25] was 8.32 µM, the TGI [26] was 3.03 µM and the TGI [27] was 2.83 µM. It also gave a growth at 0.1 µM [28] of 97%, a growth at 0.1 µM [29] of 100% and a growth at 0.01 µM [30] of 83%. For the same compound, the growth at 100 µM [31] was 1%, the growth at 100 µM [32] was -48% and the growth at 0.1 µM [33] was 91%. The growth at 100 µM [34] was -44%, the growth at 10 µM [35] was -73% and the TGI [36] was 3.86 µM.
